Laboratory results published in US20260258032A1, “TYROSINE KINASE 2 INHIBITORS AND USES THEREOF” (BIOGEN MA INC., priority 2022, published 2026).
Structures can show the parent of a compound that is named as a salt.

How the values were obtained:
[1] = tested on: JAK1 kinase activity on STAT3; test: pSTAT3 cell assay (MSD, TF1 cells, IL-6 stimulated); assay type: cell-based; conditions: Homo sapiens, TF-1, compounds 1 hour, 30 ng/mL IL-6 for 15 minutes
Method: The inhibitory potency of compounds of the disclosure against the JAK1 kinase activity on STAT3 was evaluated using an MSD-platform plate-based assay format. TF1 cells natively expressing STAT3 and JAK1 were serum-starved to reduce background phosphorylation levels, then cells were treated with compounds of the disclosure for 1 hour with a 10-point four-fold dilution series starting at 10 μM. Cells were then stimulated with 30 ng/mL interleukin 6 (IL-6) for 15 minutes. Cells were lysed and pSTAT3 levels were quantitated using an MSD plate-based assay with anti-STAT3 antibodies. The data were normalized and the percent activity versus log concentration of compound was fitted with a 4-parameter logistic model to generate IC50 curves.

[2] = tested on: JAK2 kinase activity on STAT5; test: pSTAT5 cell assay (MSD, TF1 cells, IL-3 stimulated); assay type: cell-based; conditions: Homo sapiens, TF-1, compounds 1 hour, 30 ng/mL IL-3 for 15 minutes
Method: Compounds of the disclosure were assessed for their ability to inhibit the JAK2 kinase activity on STAT5 utilizing an MSD-platform plate-based assay format. TF1 cells natively expressing STAT5 and JAK2 were serum-starved to reduce background phosphorylation levels, then cells were treated with compounds of disclosure for 1 hour with a 10-point four-fold dilution series starting at 10 μM. Cells were then stimulated with 30 ng/mL IL-3 for 15 minutes. Cells were then lysed and pSTAT5 levels were quantitated using an MSD plate-based assay with anti-STAT5 antibodies. The data were normalized and the percent activity versus log concentration of compound was fitted with a 4-parameter logistic model to generate a curve and an IC50 value.

[3] = tested on: Tyk2 kinase activity on STAT4; test: pSTAT4 cell assay (MSD, NK92 cells); assay type: cell-based; conditions: compounds 1 hr
How it was run: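 Read-out: phospho-STAT in NK92 lysates, MSD format, anti-STAT4 antibodies. Cells were serum-starved, given compound for 1 hr (10 μM top, four-fold, 10 points) and IL2-stimulated (30 ng/mL, 15 min). Normalized percent activity vs log concentration, 4-parameter logistic fit gave IC50.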

[4] = target: T1, JH2 domain of human Tyk2 (Homo sapiens, UniProt P29597); test: JH2 biochemical assay (TR-FRET probe displacement); assay type: binding
T1 construct: 10×His-tagged TYK2 JH2 domain (amino acid 575-876)
T1 sequence (P29597 575-876): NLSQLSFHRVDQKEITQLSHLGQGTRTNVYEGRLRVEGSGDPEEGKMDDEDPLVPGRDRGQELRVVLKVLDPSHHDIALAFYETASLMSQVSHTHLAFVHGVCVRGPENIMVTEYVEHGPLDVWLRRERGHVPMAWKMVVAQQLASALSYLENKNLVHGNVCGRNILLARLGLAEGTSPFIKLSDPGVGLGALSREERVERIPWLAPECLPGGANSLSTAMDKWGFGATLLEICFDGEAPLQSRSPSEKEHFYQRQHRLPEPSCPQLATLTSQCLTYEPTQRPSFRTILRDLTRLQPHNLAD
How it was run: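 A probe-displacement TR-FRET readout: compounds, tested in 3-fold, 10-point dilutions starting at […], compete with 2 nM tracer for 2 nM His-tagged JH2 (residues 575-876) detected by 0.1 nM Tb-anti-His over 60 min. IC50 comes from 4-parameter fits of normalized 520/495 nm ratios.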

[5] = TR-FRET probe displacement, JH2 domain of human Tyk2

SMILES	IC50 [1]	IC50 [2]	IC50 ([3]; stimulated 15 minutes)	IC50 ([4]; JH2 biochemical assay)	IC50 ([3]; then stimulated 15 minutes)	IC50 [4, 5]
CC(=O)Nc1cc2c(cn1)C1(CCC1)CN2c1ccnc(C(C)(F)F)n1 [Example 41, N-(1′-(2-(1,1-difluoroethyl)pyrimidin-4-yl)-1′,2′-dihydrospiro[cyclobutane-1,3′-pyrrolo[3,2-c]pyridin]-6′-yl)acetamide]	≥ 1000 nM	≥ 1000 nM	≥ 1000 nM	10 to 100 nM		
CC(=O)Nc1cc2c(cn1)C1(CCC1)CN2c1cccc(C(C)(F)F)n1 [Example 42, N-(1′-(6-(1,1-difluoroethyl)pyridin-2-yl)-1′,2′-dihydrospiro[cyclobutane-1,3′-pyrrolo[3,2-c]pyridin]-6′-yl)acetamide]	≥ 1000 nM	≥ 1000 nM	≥ 1000 nM	10 to 100 nM		
COCCNc1cc(N2CC3(CC3)c3cnc(NC(C)=O)cc32)nc(C(C)(F)F)n1 [Example 49, N-(1′-(2-(1,1-difluoroethyl)-6-((2-methoxyethyl)amino)pyrimidin-4-yl)-1′,2′-dihydrospiro[cyclopropane-1,3'-pyrrolo[3,2-c]pyridin]-6'-yl)acetamide]	≥ 1000 nM	≥ 1000 nM	10 to 100 nM	≤ 10 nM		
CC(=O)Nc1cc2c(cn1)C(C)(C)CN2c1cccc(C(C)(F)F)n1 [Example 76, N-(1-(6-(1,1-difluoroethyl)pyridin-2-yl)-3,3-dimethyl-2,3-dihydro-1H-pyrrolo[3,2-c]pyridin-6-yl)acetamide trifluoroacetate]	≥ 1000 nM	≥ 1000 nM	≥ 1000 nM	100 to 1000 nM		
CC(=O)Nc1cc2c(cn1)C1(CC1)CN2c1nc(C)cc(C(C)(F)F)n1 [Example 83, N-(1′-(4-(1,1-difluoroethyl)-6-methylpyrimidin-2-yl)-1′,2′-dihydrospiro[cyclopropane-1,3′-pyrrolo[3,2-c]pyridin]-6′-yl)acetamide]	≥ 1000 nM	≥ 1000 nM	100 to 1000 nM	≤ 10 nM		
CC(=O)Nc1cc2c(cn1)C1(CC1)CN2c1cccc(C2COC2)n1 [Example 84, N-(1′-(6-(oxetan-3-yl)pyridin-2-yl)-1′,2′-dihydrospiro[cyclopropane-1,3′-pyrrolo[3,2-c]pyridin]-6′-yl)acetamide]	≥ 1000 nM	≥ 1000 nM	≥ 1000 nM	10 to 100 nM		
CC(=O)Nc1cc2c(cn1)C1(CC1)CN2c1cccc(C2(F)COC2)n1 [Example 85, N-(1′-(6-(3-fluorooxetan-3-yl)pyridin-2-yl)-1′,2′-dihydrospiro[cyclopropane-1,3′-pyrrolo[3,2-c]pyridin]-6′-yl)acetamide]	≥ 1000 nM	≥ 1000 nM	≥ 1000 nM	10 to 100 nM		
COC1(c2cccc(N3CC4(CC4)c4cnc(NC(C)=O)cc43)n2)COC1 [Example 87, N-(1′-(6-(3-methoxyoxetan-3-yl)pyridin-2-yl)-1′,2′-dihydrospiro[cyclopropane-1,3′-pyrrolo[3,2-c]pyridin]-6′-yl)acetamide]	≥ 1000 nM	≥ 1000 nM	≥ 1000 nM	10 to 100 nM		
CC(=O)Nc1cc2c(cn1)C1(CC1)CN2c1cc(C)nc(C(C)(F)F)n1 [Example 88, N-(1′-(2-(1,1-difluoroethyl)-6-methylpyrimidin-4-yl)-1′,2′-dihydrospiro[cyclopropane-1,3′-pyrrolo[3,2-c]pyridin]-6′-yl)acetamide]	≥ 1000 nM	≥ 1000 nM	10 to 100 nM	≤ 10 nM		
CCC(=O)Nc1cc2c(cn1)C1(CC1)CN2c1cccc(C(C)(F)F)n1 [Example 90, N-(1′-(6-(1,1-difluoroethyl)pyridin-2-yl)-1′,2′-dihydrospiro[cyclopropane-1,3′-pyrrolo[3,2-c]pyridin]-6′-yl)propionamide]	≥ 1000 nM	≥ 1000 nM	10 to 100 nM	≤ 10 nM		
CC(=O)Nc1cc2c(cn1)C1(CC1)CN2c1cc(-c2cnn(C)c2)nc(C(C)(F)F)n1 [Example 238, N-(1′-(2-(1,1-difluoroethyl)-6-(1-methyl-1H-pyrazol-4-yl)pyrimidin-4-yl)-1′,2′-dihydrospiro[cyclopropane-1,3′-pyrrolo[3,2-c]pyridin]-6′-yl)acetamide]	≥ 1000 nM	≥ 1000 nM	≤ 10 nM	≤ 10 nM		
CC(=O)Nc1cc2c(cn1)C1(CCN(C)CC1)CN2c1nccc(C(C)(F)F)n1 [Example 274, N-(1′-(4-(1,1-difluoroethyl)pyrimidin-2-yl)-1-methyl-1′,2′-dihydrospiro[piperidine-4,3′-pyrrolo[3,2-c]pyridin]-6′-yl)acetamide trifluorocetate]	≥ 1000 nM	≥ 1000 nM	≥ 1000 nM	100 to 1000 nM		
CC(=O)Nc1cc2c(cn1)C1(CCN(C)CC1)CN2c1ccnc(C(C)(F)F)n1 [Example 275, N-(1′-(2-(1,1-difluoroethyl)pyrimidin-4-yl)-1-methyl-1′,2′-dihydrospiro[piperidine-4,3′-pyrrolo[3,2-c]pyridin]-6′-yl)acetamide trifluoroacetate]	≥ 1000 nM	≥ 1000 nM	≥ 1000 nM	≥ 1000 nM		
CNC(=O)Nc1cc2c(cn1)C1(CC1)CN2c1cc(C)nc(C(C)(F)F)n1 [Example 307, 1-(1′-(2-(1,1-difluoroethyl)-6-methylpyrimidin-4-yl)-1′,2′-dihydrospiro[cyclopropane-1,3′-pyrrolo[3,2-c]pyridin]-6′-yl)-3-methylurea]	≥ 1000 nM	≥ 1000 nM	10 to 100 nM	≤ 10 nM		
Cc1cc(N2CC3(CC3)c3cnc(NC(N)=O)cc32)nc(C(C)(F)F)n1 [Example 308, 1-(1′-(2-(1,1-difluoroethyl)-6-methylpyrimidin-4-yl)-1′,2′-dihydrospiro[cyclopropane-1,3′-pyrrolo[3,2-c]pyridin]-6′-yl)urea]	≥ 1000 nM	≥ 1000 nM	≤ 10 nM	≤ 10 nM		
CCc1cc(N2CC3(CC3)c3cnc(NC(C)=O)cc32)nc(C23COC(C2)C3)n1 [Example 322, N-(1′-(2-(2-oxabicyclo[2.1.1]hexan-4-yl)-6-ethylpyrimidin-4-yl)-1′,2′-dihydrospiro[cyclopropane-1,3′-pyrrolo[3,2-c]pyridin]-6′-yl)acetamide]	≥ 1000 nM	≥ 1000 nM	10 to 100 nM	≤ 10 nM		
CCn1cc(-c2cc(N3CC4(CC4)c4cnc(NC(C)=O)cc43)nc(C(C)(F)F)n2)cn1 [Example 384, N-(1′-(2-(1,1-difluoroethyl)-6-(1-ethyl-1H-pyrazol-4-yl)pyrimidin-4-yl)-1′,2′-dihydrospiro[cyclopropane-1,3′-pyrrolo[3,2-c]pyridin]-6′-yl)acetamide trifluoroacetate]	≥ 1000 nM	≥ 1000 nM			10 to 100 nM	≤ 10 nM
CC(=O)Nc1cc2c(cn1)C1(CC1)CN2c1cc(-c2cnn(C(C)C)c2)nc(C(C)(F)F)n1 [Example 386, N-(1′-(2-(1,1-difluoroethyl)-6-(1-isopropyl-1H-pyrazol-4-yl)pyrimidin-4-yl)-1′,2′-dihydrospiro[cyclopropane-1,3′-pyrrolo[3,2-c]pyridin]-6′-yl)acetamide trifluoroacetate]	≥ 1000 nM	≥ 1000 nM			≤ 10 nM	≤ 10 nM
